Assay results published in patent US12214076B2, “Drug delivery vehicles for atherosclerosis nanomedicine” (Northwestern University, priority 2019, dated 2025).
One block for each compound: values may come before it. Ends that are not written are not given here. Peptide text beside a SMILES is read from it. * marks the point of attachment. Palmitoyl = CCCCCCCCCCCCCCCC(=O)*

What was measured:
[1] = read-out: dissociation constant for PEIPC; cited from earlier work
[2] = ROS-Ac2-26 PA cleavage assay with SIN-1; assay type: physicochemical
Method: ROS-Ac2-26 and MMP-Ac2-26 PA cleavage assays: To examine ROS-mediated cleavage, 3-morpholinosydnonimine hydrochloride (SIN-1, Sigma-Aldrich or Abcam) was used. ROS-Ac2-26 PAs were reconstituted to 0.5 mM in phosphate buffer and treated with 100 μM SIN-1 for 24 hours at 37° C. For MMP2/9-mediated cleavage, human recombinant MMP2 (R&D systems, carrier-free) was used, activated with freshly prepared 1 mMp-aminophenylmercuric acetate (APMA, Sigma-Aldrich) for one hour at 37° C. The APMA disrupts the cysteine-zinc bond in MMP2 responsible for enzyme latency by liberation of the sulfhydryl group. 10% MMP-Ac2-26 PA co-assemblies were prepared at 0.5 mM in a cleavage buffer containing 50 mM tricine, 50 mM NaCl, 50 μM ZnCl2, and 10 mM CaCl2) at pH 7.4, and treated with 40 nM human recombinant MMP2 for 24 hours at 37° C. At the end of each time point, the samples were stored at −20° C., effectively stopping the cleavage reactions. Samples were analyzed at room temperature, 0.04-0.3 mg/mL with 0.1% NH4OH using a ThermoFisher Q Exactive HIF-X (ThermoFisher, Bremen, Germany) mass spectrometer coupled with a Waters Acquity H-class liquid chromatograph system. […] All measurements were recorded at a resolution setting of 120,000. […] Injection volume for all samples was […]. Data was analyzed on Xcalibur (ThermoFisher, Breman, Germany).

[3] = system: atherosclerotic LDLR KO mice; test: In vivo proof of concept: PA nanofiber localization in aortic root; design: species or system mouse; conditions: 24 h after intravenous injection, high fat diet 14 weeks, 6 mg kg-1 PA
Method: Mouse Model of Atherosclerosis and In Vivo Proof of Concept: LDLR-KO mice were fed a high fat “Western” diet (Teklad TD.88137) starting at 4 weeks of age. This diet consisted of 20% fat, 0.2% cholesterol, and 34% high sucrose. LDLR-KO mice fed this diet typically develop severe hypercholesterolemia (>800 mg/dL) and hypertriglyceridemia (>300 mg/dL) after only 2 weeks, and by 12 weeks on the high fat diet, atherosclerotic lesions are detected in the aortic root and aortic arch. After 14 weeks on the high fat diet, mice received intravenous injections of PA nanofibers dissolved in PBS (dorsal penile vein in males) under sterile conditions. Mice were briefly anesthetized for injection with inhaled isoflurane. After injection, mice were monitored and allowed to recover from anesthesia in a heated oxygen chamber. […] PA fluorescence was assessed with the HE CY3 filter (Zeiss filter #43) using excitation and emission wavelengths of 550-575 nm and 605-670 nm, respectively. Nuclear staining was performed with DAPI (4′,6-Diamidino-2-Phenylindole, Dilactate, ThermoFisher, Chicago, IL), and assessed with the DAPI filter (Zeiss filter #49) using excitation and emission wavelengths of 365-395 and 445-450 nm, respectively. Tissue autofluorescence was assessed with the green fluorescent protein filter (Zeiss filter #38) using excitation and emission wavelengths of 470-495 and 525-550 nm, respectively. […]

[4] = TEM characterization of PA nanofibers for diameter and length (Example 3); assay type: physicochemical
Method: Samples at 1 mM in PBS were prepared for TEM by plating on copper supports covered with thin carbon foil 400-mesh that were treated with glow discharge. […] Due to the overlapping fibers, automated tools including FiberApp could not be used to analyze the nanofibers. Instead, the TEM images were analyzed manually for nanofiber diameter and length using ImageJ software. Cryogenic TEM of samples was also performed using a JEOL 1230 at 100 kV accelerating voltage and Gatan 831 CCD camera. […] Samples were prepared at 1 mM in PBS blotted once for 3 seconds before plunging into liquid ethane using a Vitrobot Mark III (FEI) vitrification robot.

LDLR KO mice [5] = test: Targeting of atherosclerosis by IV injected ApoA1 PA nanofibers (Example 3); assay type: in vivo, mouse; conditions: within 24 hours after injection, confocal, Alexa Fluor 546
Method: (§1) Mouse model of atherosclerosis: To study atherosclerosis, the LDLR KO mouse was used. LDLR KO mice are fed a high fat “western” diet (Teklad TD.88137) starting at 4 weeks of age. This diet consists of 20% fat, 0.2% cholesterol, and 34% high sucrose. LDLR KO mice fed this diet typically develop severe hypercholesterolemia (>800 mg/dL) and hypertriglyceridemia (>300 mg/dL) after only 2 weeks. By 12 weeks on the high fat diet, atherosclerotic lesions are detected in the aortic root and aortic arch on cryosections stained with Oil Red O (Sigma). Atherosclerosis was quantified in the aortic root as a percentage of the aortic root by taking the atherosclerotic area divided by the total aortic root area. Measurements were made with ImageJ software. All protocols for the animal model and procedures in this manuscript were approved by Northwestern University's Institutional Animal Care and Use Committee.
Injection of PA nanofibers: PA nanofibers were dissolved at 2-4 mg/mL concentration in room temperature phosphate buffered saline (PBS). After 14 weeks on the high fat diet, mice received intravenous injections of PA nanofiber dissolved in PBS (dorsal penile vein in males, retro-orbital injection in females) using a 31 G hypodermic insulin needle on a 0.3 mL syringe under sterile conditions and magnification (NIKON SMZ 645 Zoom Stereomicroscope). Mice were briefly anesthetized for injection with inhaled isoflurane. Mice were monitored and allowed to recover from anesthesia in a heated oxygen chamber.
Dose and concentration study: To determine the optimum concentration for targeting efficacy and safety, LDLR KO mice fed the high fat diet for 14 weeks were injected with PA nanofiber at concentrations of 1 mg/mL, 2 mg/mL, and 4 mg/mL at 8 mg/kg in PBS. Similarly, to determine the optimum dose for targeting efficacy and safety, LDLR KO mice fed the high fat diet for 14 weeks were injected at PA nanofiber doses of 8 mg/kg, 6 mg/kg, 4 mg/kg, 3.3 mg/kg, and 1.7 mg/kg at 2 mg/mL in PBS. Safety, optimum dose, and concentration for targeting was assessed by survival of the animal and fluorescent pixel quantification in the aortic root, liver, lungs, kidneys, and spleen.
(§2) Tissue processing and imaging: Mice were sacrificed and euthanized under inhaled isoflurane anesthesia by diaphragm disruption and exsanguination. Phlebotomy was performed through direct right ventricular cardiac puncture using a 1 mL syringe and 25 G needle. Perfusion was performed through left ventricular cardiac puncture with 10 mL PBS and 10 mL 10% sucrose solution. The lungs, liver, spleen, kidney, aortic root, aortic arch, and descending aorta were harvested and stored in 10% sucrose for 20 minutes. Organs and vessels were then flash-frozen in Optimal Cutting Temperature embedding medium 4583 (Tissue-Tek®) with liquid nitrogen. Frozen specimens were stored at −80° C. and cryosectioned at […]. Confocal microscopy was performed on a Nikon AIR microscope. Two sets of images were acquired with a 10× Plan Fluor NA 0.3 objective. PAs were identified through quantification of the Alexa Fluor® 546 conjugated dye with 561 nm excitation and a 600/50 nm emission filter.
Images were acquired with spectral detection and spectrally unmixed to accurately separate green autofluorescence from the red Alexa Fluor® 546 signal. Brightfield and fluorescent microscopy were performed using a Zeiss Axio Imager.A2 microscope with AxioVision software (release 4.8.2, 06-2010). All confocal and fluorescent sections were mounted with ProGold Diamond mounting media (Sigma). Slides were stained with Oil Red O to image and quantify atherosclerosis under brightfield microscopy. The elastic laminae were identified using the green fluorescent protein (GFP) filter with an exposure time of 3500 ms under 5× magnification. Nanofibers were identified in the aortic root by presence of Alexa Fluor® 546 on the Cy3 filter under 5-10× magnification, and in the internal organs under 20× magnification. […]

LDLR KO mice [6] = test: Atherosclerosis treatment study; assay type: in vivo, mouse
Method: as §1
(§3) Blood samples were collected at the end of the treatment study for toxicology analysis. Mice were euthanized three days after their 16th treatment.
as §2
Images were acquired with spectral detection and spectrally unmixed to accurately separate green autofluorescence from the red Alexa Fluor® 546 signal. Brightfield and fluorescent microscopy were performed using a Zeiss Axio Imager.A2 microscope with AxioVision software (release 4.8.2, 06-2010). All confocal and fluorescent sections were mounted with ProGold Diamond mounting media (Sigma). Slides were stained with Oil Red O to image and quantify atherosclerosis under brightfield microscopy. The elastic laminae were identified using the green fluorescent protein (GFP) filter with an exposure time of 3500 ms under 5× magnification. Nanofibers were identified in the aortic root by presence of Alexa Fluor® 546 on the Cy3 filter under 5-10× magnification, and in the internal organs under 20× magnification. Fluorescent pixel quantification in the aortic root and within organs was performed with ImageJ software.
(§4) Statistics: The effect of treatments and sex on atherosclerosis progression in mice was analyzed using one- or two-factor analysis of variance (ANOVA) followed by a post-hoc student's t-test. The toxicological effects of treatments were also analyzed using two-factor ANOVA and a post-hoc student's t-test. Toxicological effects of treatments on liver proteins AST, ALT, and ALP were further analyzed using ordinal logistic regression models of likelihood ratio tests, followed by a post-hoc Wald test

[7] = Treatment study serum chemistry (toxicology analysis); assay type: in vivo, mouse; conditions: mouse, in vivo
Method: as §3, §2, §4

[8] = 30 measurements from three images
[9] = 30 measurements from three images, listed as Ser PA
[10] = 30 measurements from three images, listed as scrambled

Compound: native ApoA1: main protein component of high density lipoprotein (HDL) cholesterol
Kd [1]: 50 µM

Ac2-26 release from PA ([2]; 100 μM SIN-1, 24 hours, 37° C.): released Ac2-26
Compound: C16-V2A2 (SEQ ID NO: 8)-E2-KP5K (SEQ ID NO: 10)-AMVSEFLKQAWFIENEEQEYVQTVK SEQ ID NO: 7-NH2 [ROS-Ac2-26 PA]
Ac2-26 cleavage without SIN-1 treatment ([2]; untreated): showed the presence of cleaved Ac2-26 peptide

Diameter (nm) Median [4, 8]: 14.2 nm
Length (nm) Average [4, 8]: 403.8 nm
Diameter (nm) Average [4, 9]: 13.8 nm
Length (nm) Median [4, 9]: 257.6 nm
Diameter (nm) Average [4, 10]: 13.8±2.4 nm
Length (nm) Median [4, 10]: 258 nm
Compound: CCCCCCCCCCCCCCCC(=O)N[C@H](C(=O)N[C@H](C(=O)N[C@@H](C)C(=O)N[C@@H](C)C(=O)N[C@@H](CCC(=O)O)C(=O)N[C@@H](CCC(=O)O)C(=O)N[C@@H](CS)C(=O)N[C@@H](CC(=O)O)C(=O)N[C@@H](Cc1c[nH]c2ccccc12)C(=O)N[C@@H](Cc1ccccc1)C(=O)N[C@@H](C)C(=O)N[C@@H](CCCCN)C(=O)N[C@@H](CC(=O)O)C(=O)N[C@@H](Cc1ccc(O)cc1)C(=O)N[C@@H](Cc1ccccc1)C(=O)N[C@@H](CCCCN)C(=O)N[C@@H](CCCCN)C(=O)N[C@@H](C)C(=O)N[C@@H](Cc1ccccc1)C(=O)N[C@H](C(=O)N[C@@H](CCC(=O)O)C(=O)N[C@@H](CCC(=O)O)C(=O)N[C@@H](Cc1ccccc1)C(=O)N[C@@H](C)C(=O)N[C@@H](CCCCN)C(N)=O)C(C)C)C(C)C)C(C)C [Scr PA] (Palmitoyl-VVAAEECDWFAKDYFKKAFVEEFAK-NH2)
localization of nanofibers to areas of atherosclerotic plaque in the aortic root [3]: does not reveal evidence of nanofiber localization
localization to areas of atherosclerosis (LDLR KO mice [5]): did not localize to areas of atherosclerosis
atherosclerosis progression in comparison to the PBS control (LDLR KO mice [6]; both sexes, twice per week over eight weeks, percent of atherosclerosis in the aortic root): significantly decreased
reduction of atherosclerosis in females in comparison to males (LDLR KO mice [6]; mouse, in vivo): greater effects upon reducing atherosclerosis in females
AST levels in comparison to the PBS control [7]: no significant differences
Creatine [7]: 0 U/L
Sodium [7]: 138 mmol/L
Total Protein [7]: 5.4 g/dL
aspartate aminotransferase (AST) in the blood in comparison to PBS [7]: significantly elevated levels of aspartate aminotransferase (AST)

Compound: DWFKAFYDKVAEKFKEAF (SEQ ID NO: 2)-NH2 (DWFKAFYDKVAEKFKEAF-NH2) [4F, 18 amino acid ApoA1 mimetic peptide]
nanofiber formation [4]: No nanofiber formation
localization to areas of atherosclerosis (LDLR KO mice [5]): localized to areas of atherosclerosis
Kd [1]: 1e-05 µM
